Results: ChEMBL document CHEMBL5512692, “Colloidal Aggregation Confounds Cell-Based Covid-19 Antiviral Screens” (J Med Chem, 2024)
Calls of active or inactive are those of the source. The rule behind the calls is not given here.

Columns and labels:
[1] = Aggregation property of compound in 50 mM KPi buffer at pH 7 assessed as critical aggregation concentration by DLS assay; type: physicochemical
[2] = Aggregation property of compound in DMEM media assessed as critical aggregation concentration by DLS assay; type: physicochemical
[3] = Inhibition of Beta-lactamase AmpC (unknown origin) using CENTA as chromogenic substrate preincubated for 5 mins followed by substrate addition and measured for 80 sec by absorbance based analysis; parameters: species or system Bacteria
Bacteria [4] = assay: (§1) Inhibition of Beta-lactamase AmpC (unknown origin) using CENTA as chromogenic substrate assessed as enzyme recovery by measuring residual activity at approximately IC90 preincubated for 5 mins in presence of triton X-0.01% followed by substrate addition and measured for 80 sec by absorbance based analysis relative to control; details: time 380.0 sec
Bacteria [5] = assay: as §1, with “of 10 mg/ml BSA” for “of triton X-0.01%”, “by enzyme” for “by substrate”, “measured after 5 mins” for “measured for 80 sec”; details: time 10.0 min
SARS-CoV-2 [6] = assay: Antiviral activity against SARS CoV-2 spike-pseudotyped lentivirus infected in human A549-hACE2-TMPRSS2 cells assessed as inhibition of viral entry incubated for 24 hrs in absence of BSA by luciferase reporter assay; type: functional, organism-based; details: Severe acute respiratory syndrome coronavirus 2, A549-hACE2-TMPRSS2, 24 h
[7] = Absorption property of compound in DMEM media at 100 to 200 uM at 500 to 700 nm by luciferase assay; type: physicochemical; details: dose 100-200 µM
SARS-CoV = assay: Antiviral activity against HIV-Luc pseudotyped SARS CoV infected in Vero E6 cells assessed as reduction in virus entry preincubated for 30 mins followed by infection in cells and measured after 36 hrs by luciferase assay; type: functional, organism-based; details: Severe acute respiratory syndrome-related coronavirus, Vero C1008
[8] = Inhibition of porcine heart MDH using oxaloacetic acid as substrate preincubated for 5 mins followed by substrate and […] addition and measured for 80 sec by absorbance based analysis; parameters: species or system Sus scrofa
Sus scrofa [9] = species on record: Sus scrofa; assay: (§2) Inhibition of porcine heart MDH using oxaloacetic acid as substrate assessed as enzyme recovery by measuring residual activity at approximately IC90 preincubated for 5 mins in presence of triton X-0.01% followed by substrate and NADPH addition and measured for 80 sec by absorbance based analysis relative to control; details: time 380.0 sec
Sus scrofa [10] = species on record: Sus scrofa; assay: as §2, with “10 mg/ml BSA” for “triton X-0.01%”, “enzyme” for “substrate and NADPH”, “after 5 mins” for “for 80 sec”; details: time 10.0 min
SARS-CoV-2 [11] = assay: Antiviral activity against luciferase independent SARS CoV-2 spike-pseudotyped lentivirus infected in human A549-hACE2-TMPRSS2 cells assessed as inhibition of viral entry at 31.6 to 63.3 uM compound spin-down for 1 hr followed by viral infection and measured after 24 hrs by luciferase reporter assay; type: functional, organism-based; details: Severe acute respiratory syndrome coronavirus 2, dose 31.6-63.3 µM, time 25.0 hrs
SARS-CoV-2 [12] = assay: Antiviral activity against SARS-CoV-2 infected in Vero E6 cells assessed as reduction in virus induced cytopathic effect pretreated for 30 mins followed by virus infection and measured after 72 hrs by MTS assay; type: functional, organism-based; details: Severe acute respiratory syndrome coronavirus 2, Vero C1008

O=C(OC[C@H]1O[C@@H](OC(=O)c2cc(O)c(O)c(O)c2)[C@H](OC(=O)c2cc(O)c(O)c(O)c2)[C@@H](OC(=O)c2cc(O)c(O)c(O)c2)[C@@H]1O)c1cc(O)c(O)c(O)c1
CAC [1]: 12 µM
CAC [2]: 9.8 µM
IC50 [3]: 13000 nM
Activity (Bacteria [4]): 51%
Activity (Bacteria [5]): 80%
EC50 (SARS-CoV-2 [6]): 70 nM
Activity [7]: Not Active
EC50 (SARS-CoV): 2860 nM

Cc1ccc(C(=O)Nc2ccc(S(=O)(=O)O)c3cc(S(=O)(=O)O)cc(S(=O)(=O)O)c23)cc1NC(=O)c1cccc(NC(=O)Nc2cccc(C(=O)Nc3cc(C(=O)Nc4ccc(S(=O)(=O)O)c5cc(S(=O)(=O)O)cc(S(=O)(=O)O)c45)ccc3C)c2)c1 [SURAMIN]
IC50 [8]: 1200 nM
Activity (Sus scrofa [9]): -4.8%
Activity (Sus scrofa [10]): 91%
Activity [7]: Not Active
Activity (SARS-CoV-2 [11]): Active
EC50 (SARS-CoV-2 [12]): 20000 nM
